These compounds were tested on Hedgehog signal transduction system (Smo) (assay: Gli reporter luciferase assay in NIH-3T3/Gli reporter cells stimulated with mouse Shh-N end fragment). Settings: NIH3T3; 1 μM compound; NIH-3T3/Gli reporter cells with mouse Shh-N end fragment culture supernatant, 48 hr; luciferase activity, control without compound as 100; read-out: inhibition rate (%) at 1 μM.
Type: cell-based
Excerpt: Inhibition of the Hedgehog signal transduction system can be measured, for example, by quantifying a decrease in the expression level of a reporter gene connected to the downstream of the Gli binding site based on the fluorescence intensity according to the following Experimental Example 1. Alternatively, it can be measured by quantifying the expression of Gli-1 mRNA in a cell extract by quantitative PCR method and the like. A compound that inhibits Hedgehog signal targets Smo, which can be confirmed, for example, by binding fluorescence-labeled Cyclopamine and a test compound to cells expressing Smo, measuring the fluorescence level of the cell, and comparing the value with that without addition of a test compound to find a decrease.
Gli reporter plasmid was constructed by inserting 8×Gli-binding site and chicken δ-crystalline promoter into the upstream of luc+ of pGL3 (Promega).
prepared in reference to the base sequence described in GenBank accession No.; X02187, and chicken genome DNA (Clontech) as a template. PCR reaction was performed using Pfu Turbo (Stratagene) and following the attached protocol. The obtained 108 bp fragment was digested with restriction enzymes BglII and HindIII, and inserted into BglII-HindIII site of pGL3 to give plasmid pGL3/δ-cry promoter.
As 8× Gli-binding site, a sequence containing eight 9-bp Gli bound consensus sequences (GACCACCCA) described in Yoon et al., J. Biol. Chem., vol. 273, pages 3496-3501 (1998) was prepared from synthetic DNA. That is, two synthetic DNAs,
were heat treated at 95° C. for 2 minutes, and incubated at 37° C. for 1 hr for annealing to give a double stranded DNA of the above-mentioned two synthetic DNAs. The obtained double stranded DNA was digested with restriction enzymes BglII and KpnI, and the obtained DNA fragment was inserted into BglII-KpnI site of pGL3/δ-cry promoter to construct plasmid pGL3/δ-cry promoter, 8× Gli binding site, i.e., Gli reporter plasmid. 2. Construction of Plasmid for Expression of Mouse Shh-N End Fragment
As a material for construction of plasmid for Shh-N end fragment expression, mouse Shh cDNA was cloned at first.
The mouse Shh cDNA was cloned by Nested PCR method using mouse 11-day fetus cDNA (Clontech) as a template. The primer sequence was prepared in reference to the base sequence described in GenBank accession No.; NM_009170.
Using the mouse Shh cDNA sequence obtained as mentioned above as a template, a partial cDNA sequence wherein stop codon (TGA) was added to 3′-terminal of cDNA sequence encoding 1st to 198th amino acid sequence of mouse Shh was obtained by PCR method. As the primer set,
In the manner mentioned above, a plasmid for mouse Shh-N end fragment expression, pcDNA3.1/mShh-N, was constructed.
HEK293 cells were grown in D-MEM medium (Invitrogen) containing 10% fetal bovine serum in a 10 cm dish and pcDNA3.1/mShh-N was introduced into the cells using FuGENE6 (Roche Applied Science). Thereafter, the HEK293 cells were cultured in a carbon dioxide gas incubator at 37° C. for 24 hours, and the medium was exchanged with D-MEM medium (Invitrogen) containing 2% fetal bovine serum. After culturing for 48 hr, culture supernatant containing recombinant type mouse Shh-N end fragment was obtained by filtration using a filter ([…]).
Using D-MEM (Invitrogen) containing 10% fetal bovine serum, expression plasmid pcDNA3:1 and Gli reporter plasmid (pGL3/δ-cry promoter, 8× Gli binding site) produced by the method of Experimental Example 1 were introduced into NIH-3T3 cells grown in a 10 cm dish by the use of FuGENE6 (Roche Applied Science).
After culture for 24 hr, the cells were recovered, suspended in D-MEM medium containing 10% fetal bovine serum and supplemented with Geneticin (Life Technologies Oriental, Inc.) to a final concentration of 500 μg/ml, diluted to 10^4 cells/ml, plated on a 96 well plate, and cultured in a carbon dioxide gas incubator at 37° C. to give Geneticin resistant transformed cell line. […]

Row | SMILES | inhibition at 1 µM
1 | CCc1cc2c(nc1-c1ccc(F)cc1)c(OC(C)C)c(C(=O)NC1CCN(C(=O)CO)CC1)n2C [Example 132, 6-ethyl-5-(4-fluorophenyl)-N-[1-(hydroxyacetyl)piperidin-4-yl]-1-methyl-3-(1-methylethoxy)-1H-pyrrolo[3,2-b]pyridine-2-carboxamide] | 86%
2 | Cc1nc2c(nc1-c1ccccc1)c(OC(C)C)c(C(=O)NC1CCN(C(=O)CO)CC1)n2C [Example 143, N-[1-(hydroxyacetyl)piperidin-4-yl]-3,5-dimethyl-7-(1-methylethoxy)-2-phenyl-5H-pyrrolo[2,3-b]pyrazine-6-carboxamide] | 96%
3 | CCc1cc2c(nc1NC(=O)c1ccccc1)c(OC(C)C)c(C(=O)NC1CCN(C(=O)CO)CC1)n2C [Example 130, 6-ethyl-N-[1-(hydroxyacetyl)piperidin-4-yl]-1-methyl-3-(1-methylethoxy)-5-[(phenylcarbonyl)amino]-1H-pyrrolo[3,2-b]pyridine-2-carboxamide] | 84%
4 | CCc1nc2c(cc1NC(=O)c1ccco1)c(OCC(F)(F)F)c(C(=O)NC1CCN(C(=O)CO)CC1)n2C [Example 52, 6-ethyl-5-[(furan-2-ylcarbonyl)amino]-N-[1-(hydroxyacetyl)piperidin-4-yl]-1-methyl-3-(2,2,2-trifluoroethoxy)-1H-pyrrolo[2,3-b]pyridine-2-carboxamide] | 94%
5 | CCc1cc2sc(C(=O)NC3CCN(C(=O)CO)CC3)c(OC(C)C)c2cc1NC(=O)c1ccc(F)cc1 [Example 154, 6-ethyl-5-{[(4-fluorophenyl)carbonyl]amino}-N-[1-(hydroxyacetyl)piperidin-4-yl]-3-(1-methylethoxy)-1-benzothiophene-2-carboxamide] | 97%
6 | CCc1cc2c(cc1NC(=O)c1ccc(F)cc1)c(OC(C)C)c(C(=O)NC1CCN(C(=O)CO)CC1)n2C [Example 168, 6-ethyl-5-{[(4-fluorophenyl)carbonyl]amino}-N-[1-(hydroxyacetyl)piperidin-4-yl]-1-methyl-3-(1-methylethoxy)-1H-indole-2-carboxamide] | 97%
7 | CCc1cc2c(cc1NC(=O)c1ccccc1)c(OCC(F)(F)F)c(C(=O)NC1CCN(C(=O)CO)CC1)n2C [Example 146, 6-ethyl-N-[1-(hydroxyacetyl)piperidin-4-yl]-1-methyl-5-[(phenylcarbonyl)amino]-3-(2,2,2-trifluoroethoxy)-1H-indole-2-carboxamide] | 90%
8 | CCc1nc2sc(C(=O)NC3CCN(C(=O)CO)CC3)c(OCC(F)(F)F)c2cc1NC(=O)c1ccc(F)cc1 [Example 58, 6-ethyl-5-{[(4-fluorophenyl)carbonyl]amino}-N-[1-(hydroxyacetyl)piperidin-4-yl]-3-(2,2,2-trifluoroethoxy)thieno[2,3-b]pyridine-2-carboxamide] | 97%
9 | CCc1nc2c(cc1Nc1cccc(OC)c1)c(OCC(F)(F)F)c(C(=O)NC1CCN(C(=O)CO)CC1)n2C [Example 5, 6-ethyl-N-[1-(hydroxyacetyl)piperidin-4-yl]-5-[(3-methoxyphenyl)amino]-1-methyl-3-(2,2,2-trifluoroethoxy)-1H-pyrrolo[2,3-b]pyridine-2-carboxamide] | 97%
10 | CCc1nc2c(cc1NC(=O)c1ccccc1)c(OCC(F)(F)F)c(C(=O)NC1CCN(C(=O)CO)CC1)n2C [Example 7, 6-ethyl-N-[1-(hydroxyacetyl)piperidin-4-yl]-1-methyl-5-[(phenylcarbonyl)amino]-3-(2,2,2-trifluoroethoxy)-1H-pyrrolo[2,3-b]pyridine-2-carboxamide] | 96%
11 | CCc1nc2c(cc1NC(=O)c1ccc(OC)cc1)c(OCC(F)(F)F)c(C(=O)NC1CCN(C(=O)CO)CC1)n2C [Example 34, 6-ethyl-N-[1-(hydroxyacetyl)piperidin-4-yl]-5-{[(4-methoxyphenyl)carbonyl]amino}-1-methyl-3-(2,2,2-trifluoroethoxy)-1H-pyrrolo[2,3-b]pyridine-2-carboxamide] | 93%
12 | CCOc1c(C(=O)NC2CCN(C(=O)CO)CC2)n(C)c2cc(CC)c(NC(=O)c3ccccc3)nc12 [Example 129, 3-ethoxy-6-ethyl-N-[1-(hydroxyacetyl)piperidin-4-yl]-1-methyl-5-[(phenylcarbonyl)amino]-1H-pyrrolo[3,2-b]pyridine-2-carboxamide] | 92%
13 | CCc1nc2c(cc1NC(=O)c1cscc1OC)c(OC(C)C)c(C(=O)NC1CCN(C(=O)CO)CC1)n2C [Example 62, 6-ethyl-N-[1-(hydroxyacetyl)piperidin-4-yl]-5-{[(4-methoxythiophene-3-yl)carbonyl]amino}-1-methyl-3-(1-methylethoxy)-1H-pyrrolo[2,3-b]pyridine-2-carboxamide] | 98%
14 | CCc1nc2c(nc1NC(=O)c1ccccc1)c(OC(C)C)c(C(=O)NC1CCN(C(=O)CO)CC1)n2C [Example 163, 3-ethyl-N-[1-(hydroxyacetyl)piperidin-4-yl]-5-methyl-7-(1-methylethoxy)-2-[(phenylcarbonyl)amino]-5H-pyrrolo[2,3-b]pyrazine-6-carboxamide] | 98%
15 | Cc1nc2c(nc1NC(=O)c1ccccc1)c(OC(C)C)c(C(=O)NC1CCN(C(=O)CO)CC1)n2C [Example 164, N-[1-(hydroxyacetyl)piperidin-4-yl]-3,5-dimethyl-7-(1-methylethoxy)-2-[(phenylcarbonyl)amino]-5H-pyrrolo[2,3-b]pyrazine-6-carboxamide] | 99%
16 | CCc1cc2sc(C(=O)NC3CCN(C(=O)CO)CC3)c(OCC(F)(F)F)c2cc1NC(=O)c1ccsc1 [Example 150, 6-ethyl-N-[1-(hydroxyacetyl)piperidin-4-yl]-5-[(thiophen-3-ylcarbonyl)amino]-3-(2,2,2-trifluoroethoxy)-1-benzothiophene-2-carboxamide] | 89%
17 | CCc1nc2c(cc1NC(=O)c1cccs1)c(OC(C)C)c(C(=O)NC1CCN(C(=O)CO)CC1)n2C [Example 51, 6-ethyl-N-[1-(hydroxyacetyl)piperidin-4-yl]-1-methyl-3-(1-methylethoxy)-5-[(thiophen-2-ylcarbonyl)amino]-1H-pyrrolo[2,3-b]pyridine-2-carboxamide] | 94%
18 | CCc1cc2c(nc1NC(=O)c1ccc(F)cc1)c(OC(C)C)c(C(=O)NC1CCN(C(=O)CO)CC1)n2C [Example 167, 6-ethyl-5-{[(4-fluorophenyl)carbonyl]amino}-N-[1-(hydroxyacetyl)piperidin-4-yl]-1-methyl-3-(1-methylethoxy)-1H-pyrrolo[3,2-b]pyridine-2-carboxamide] | 99%
19 | CCc1nc2c(cc1NC(=O)c1ccccc1)c(OCC(F)(F)F)c(C(=O)NC1CC[S+]([O-])CC1)n2C (centres unmarked) [Example 41, 6-ethyl-1-methyl-N-(1-oxidotetrahydro-2H-thiopyran-4-yl)-5-[(phenylcarbonyl)amino]-3-(2,2,2-trifluoroethoxy)-1H-pyrrolo[2,3-b]pyridine-2-carboxamide] | 96%
20 | CCc1nc2c(cc1NC(=O)c1ccccc1)c(OC(C)C)c(C(=O)N[C@H]1CC[C@@H](O)CC1)n2C [Example 173, 6-ethyl-N-(cis-4-hydroxycyclohexyl)-1-methyl-3-(1-methylethoxy)-5-[(phenylcarbonyl)amino]-1H-pyrrolo[2,3-b]pyridine-2-carboxamide] | 98%
